Results from US9493461B2, “Tetracyclic heterocycle compounds and methods of use thereof for the treatment of hepatitis C” (priority 2013, dated 2016).

Experiments:
HCV replicon genotype 1a = assay: HCV replicon assay, genotype 1a (cell ELISA for replicon-encoded NS3/4A); type: cell-based, hepatitis C virus (HCV); settings: Hepatitis C virus, 96 h, read-out: 1a IC50 (nM), genotype 1a replicon cells, 96 hours incubation, NS3/4A ELISA readout, % of DMSO control
Protocol: Measurement of inhibition by compounds was performed using the HCV replicon system. Several different replicons encoding different HCV genotypes or mutations were used. In addition, potency measurements were made using different formats of the replicon assay, including different ways of measurements and different plating formats. See Jan M. Vrolijk et al., A replicons-based bioassay for the measurement of interferons in patients with chronic hepatitis C, 110 J. V[…] 201 (2003); Steven S. Carroll et al., Inhibition of Hepatitis C Virus RNA Replication by 2′-Modified Nucleoside Analogs, 278(14) J. BIOLOGICAL CHEMISTRY 11979 (2003). However, the underlying principles are common to all of these determinations, and are outlined below.
(§1) Stable neomycin phosphotransferase encoding replicons-harboring cell lines were used, so all cell lines were maintained under G418 selection prior to the assay. Potency was determined using a cell ELISA assay with an antibody to the replicons encoded NS3/4a protease. See Caterina Trozzi et al., In Vitro Selection and Characterization of Hepatitis C Virus Serine Protease Variants Resistant to an Active-Site Peptide Inhibitor, 77(6) J. Virol. 3669 (2003). To initiate an assay, replicon cells were plated in the presence of a dilution series of test compound in the absence of G418. Typically, the assays were performed in a 96-well plate formate for manual operation, or a 384-well plate format for automated assay. Replicon cells and compound were incubated for 96 hours. At the end of the assay, cells were washed free of media and compound, and the cells were then lysed. RNA was quantified indirectly through detection of replicon-encoded NS3/4A protein levels, through an ELISA-based assay with an antibody specific for NS3/4A. IC50 determinations were calculated as a percentage of a DMSO control by fitting the data to a four-parameter fit function and the data obtained is provided in the table below.
(§2) Data for selected compounds of the present invention was obtained for genotypes 1a and 1b using this method and is provided in the table below: […]

HCV replicon genotype 1b = assay: HCV replicon assay, genotype 1b (cell ELISA for replicon-encoded NS3/4A); type: cell-based, hepatitis C virus (HCV); settings: Hepatitis C virus, 96 h, read-out: 1b IC50 (nM), genotype 1b replicon cells, 96 hours incubation, NS3/4A ELISA readout, % of DMSO control
Protocol: The HCV NS5B inhibitory activity of the present compounds may be tested using assays known in the art. The HCV NS5B polymerase inhibitors described herein have activities in a genotype 1b replicon assay as described in the Examples. The assay is performed by incubating a replicon harboring cell-line in the presence of inhibitor for a set period of time and measuring the effect of the inhibitor on HCV replicon replication either directly by quantifying replicon RNA level, or indirectly by measuring enzymatic activity of a co-encoded reporter enzyme such as luciferase or β-lactamase. By performing a series of such measurements at different inhibitor concentrations, the effective inhibitory concentration of the inhibitor (EC50 or EC90) is determined See Jan M. Vrolijk et al., A replicons-based bioassay for the measurement of interferons in patients with chronic hepatitis C, 110 J. VIROLOGICAL METHODS 201 (2003). Such assays may also be run in an automated format for high through-put screening. See Paul Zuck et al., A cell-based β-lactamase reporter gene assay for the identification of inhibitors of hepatitis C virus replication, 334 ANALYTICAL BIOCHEMISTRY 344 (2004).
Measurement of inhibition by compounds was performed using the HCV replicon system. Several different replicons encoding different HCV genotypes or mutations were used. In addition, potency measurements were made using different formats of the replicon assay, including different ways of measurements and different plating formats. See Jan M. Vrolijk et al., A replicons-based bioassay for the measurement of interferons in patients with chronic hepatitis C, 110 J. VIROLOGICAL METHODS 201 (2003); Steven S. Carroll et al., Inhibition of Hepatitis C Virus RNA Replication by 2′-Modified Nucleoside Analogs, 278(14) J. BIOLOGICAL CHEMISTRY 11979 (2003). However, the underlying principles are common to all of these determinations, and are outlined below.
as §1, §2

CNC(=O)c1c(-c2ccc(F)cc2)oc2nc(N(C)S(C)(=O)=O)c(-c3ccc4nc(CN5CC(F)C5)n5c6cccc(F)c6cc5c4n3)cc12 [Example 38, 5-(11-fluoro-6-((3-fluoroazetidin-1-yl)methyl)pyrido[3′,2′:4,5]pyrimido[1,6-a]indol-2-yl)-2-(4-fluorophenyl)-N-methyl-6-(N-methylmethylsulfonamido)furo[2,3-b]pyridine-3-carboxamide]
IC50 (HCV replicon genotype 1a): 6.38 nM | IC50 (HCV replicon genotype 1b): 14.7 nM

CNC(=O)c1c(-c2ccc(F)cc2)oc2cc(N(C)S(C)(=O)=O)c(-c3ccc4nc(CN5CCC5(C)C)n5c6cccc(F)c6cc5c4n3)cc12 [Example 99]
IC50 (HCV replicon genotype 1a): 3.32 nM | IC50 (HCV replicon genotype 1b): 5.76 nM

CNC(=O)c1c(-c2ccc(F)cc2)oc2cc(N(C)S(C)(=O)=O)c(-c3cc4c(cn3)nc(CN3CC(C)(C#N)C3)n3c5cccc(F)c5cc43)cc12 [Example 119]
IC50 (HCV replicon genotype 1a): 1.74 nM | IC50 (HCV replicon genotype 1b): 3.59 nM

CNC(=O)c1c(-c2ccc(F)cc2)oc2cc(N(C)S(C)(=O)=O)c(-c3ccc4ncn5c6ccccc6cc5c4c3)cc12 [Example 41, 2-(4-fluorophenyl)-5-(indolo[1,2-c]quinazolin-2-yl)-N-methyl-6-(N-methylmethylsulfonamido)benzofuran-3-carboxamide]
IC50 (HCV replicon genotype 1a): 2.09 nM | IC50 (HCV replicon genotype 1b): 2.57 nM

CNC(=O)c1c(-c2ccc(C(F)(F)F)nc2)oc2cc(N(C)S(C)(=O)=O)c(-c3ccc4ncn5c6cccc(F)c6cc5c4n3)cc12 [Example 1, 5-(11-fluoropyrido[3′,2′:4,5]pyrimido[1,6-a]indol-2-yl)-N-methyl-6-(N-methylmethylsulfonamido)-2-(6-(trifluoromethyl)pyridin-3-yl)benzofuran-3-carboxamide]
IC50 (HCV replicon genotype 1a): 6.56 nM | IC50 (HCV replicon genotype 1b): 4.01 nM

CNC(=O)c1c(-c2ccc(F)cc2)oc2cc(N(C)S(C)(=O)=O)c(-c3ccc4nc(CN5CCN6C(=O)OCC6C5)n5c6cccc(F)c6cc5c4n3)cc12 (stereo not shown) [Example 98]
IC50 (HCV replicon genotype 1a): 4.79 nM | IC50 (HCV replicon genotype 1b): 4.16 nM

CNC(=O)c1c(-c2ccc(F)cc2)oc2nc(N(C)S(C)(=O)=O)c(-c3ccc4ncn5c6cccc(F)c6cc5c4n3)cc12 [Example 14, 2-(4-fluorophenyl)-5-(11-fluoropyrido[3′,2′:4,5]pyrimido[1,6-a]indol-2-yl)-N-methyl-6-(N-methylmethylsulfonamido)furo[2,3-b]pyridine-3-carboxamide]
IC50 (HCV replicon genotype 1a): 1.75 nM | IC50 (HCV replicon genotype 1b): 3.72 nM

CNC(=O)c1c(-c2ccc(F)cc2C)oc2cc(N(C)S(C)(=O)=O)c(-c3ccc4ncn5c6cccc(F)c6cc5c4n3)cc12 [Example 6]
IC50 (HCV replicon genotype 1a): 3.2 nM | IC50 (HCV replicon genotype 1b): 5.08 nM

CNC(=O)c1c(-c2ccc(F)cc2)oc2cc(N(C)S(C)(=O)=O)c(-c3cnc4ncn5c6cccc(F)c6cc5c4c3)cc12 [Example 59, 2-(4-fluorophenyl)-5-(11-fluoropyrido[2′,3′:4,5]pyrimido[1,6-a]indol-2-yl)-N-methyl-6-(N-methylmethylsulfonamido)benzofuran-3-carboxamide]
IC50 (HCV replicon genotype 1a): 2 nM | IC50 (HCV replicon genotype 1b): 2.16 nM

CNC(=O)c1c(-c2ccc(F)cc2)oc2cc(N(C)S(C)(=O)=O)c(-c3ccc4nc(CN5CCN(C)CC5)n5c6cccc(F)c6cc5c4n3)cc12 [Example 108]
IC50 (HCV replicon genotype 1a): 6.08 nM | IC50 (HCV replicon genotype 1b): 8.48 nM

CNC(=O)c1c(-c2ccc(F)cc2)oc2cc(N(C)S(C)(=O)=O)c(-c3ccc4nc(CC(=O)OC)n5c6cccc(F)c6cc5c4n3)cc12 [Example 63, methyl 2-(11-fluoro-2-(2-(4-fluorophenyl)-3-(methylcarbamoyl)-6-(N-methylmethylsulfonamido)benzofuran-5-yl)pyrido[3′,2′:4,5]pyrimido[1,6-a]indol-6-yl)acetate]
IC50 (HCV replicon genotype 1a): 1.55 nM | IC50 (HCV replicon genotype 1b): 2.76 nM

CNC(=O)c1c(-c2ccc(F)cc2)oc2cc(N(C)S(C)(=O)=O)c(-c3ccc4ncn5c6cccc(F)c6cc5c4n3)cc12 [Example 10, 2-(4-fluorophenyl)-5-(11-fluoropyrido[3′,2′:4,5]pyrimido[1,6-a]indol-2-yl)-N-methyl-6-(N-methylmethylsulfonamido)benzofuran-3-carboxamide]
IC50 (HCV replicon genotype 1a): 2.01 nM | IC50 (HCV replicon genotype 1b): 3.24 nM

CNC(=O)c1c(-n2ccc(C)cc2=O)oc2cc(N(C)S(C)(=O)=O)c(-c3ccc4nc(CN5CC(F)C5)n5c6cccc(F)c6cc5c4n3)cc12 [Example 30]
IC50 (HCV replicon genotype 1a): 2.41 nM | IC50 (HCV replicon genotype 1b): 2.32 nM

CNC(=O)c1c(-c2ccc(F)cc2)oc2cc(N(C)S(C)(=O)=O)c(-c3ccc4c(n3)-c3cc5c(F)cccc5n3CN4CC(=O)O)cc12 [Example 70, 2-(11-fluoro-2-(2-(4-fluorophenyl)-3-(methylcarbamoyl)-6-(N-methylmethylsulfonamido)benzofuran-5-yl)pyrido[3′,2′:4,5]pyrimido[1,6-a]indol-5(6H)-yl)acetic acid]
IC50 (HCV replicon genotype 1a): 35.2 nM | IC50 (HCV replicon genotype 1b): 26.8 nM

CNC(=O)c1c(C2CC2)oc2cc(N(C)S(C)(=O)=O)c(-c3ccc4nc(CN5CC(F)C5)n5c6cccc(F)c6cc5c4n3)cc12 [Example 151]
IC50 (HCV replicon genotype 1a): 2.66 nM | IC50 (HCV replicon genotype 1b): 3.43 nM

CNC(=O)c1c(-c2ccc(F)cc2F)oc2cc(N(C)S(C)(=O)=O)c(-c3ccc4nc(CN5CC(S(C)(=O)=O)C5)n5c6cccc(F)c6cc5c4n3)cc12 [Example 149]
IC50 (HCV replicon genotype 1a): 3.38 nM | IC50 (HCV replicon genotype 1b): 2.49 nM

CNC(=O)c1c(-c2ccc(F)cc2)nn2cc(N(C)S(C)(=O)=O)c(-c3ccc4ncn5c6cccc(F)c6cc5c4n3)cc12 [Example 16, 2-(4-fluorophenyl)-5-(11-fluoropyrido[3′,2′:4,5]pyrimido[1,6-a]indol-2-yl)-N-methyl-6-(N-methylmethylsulfonamido)pyrazolo[1,5-a]pyridine-3-carboxamide]
IC50 (HCV replicon genotype 1a): 0.954 nM | IC50 (HCV replicon genotype 1b): 2.22 nM

CNC(=O)c1c(-c2ccc(F)cc2F)oc2cc(N(C)S(C)(=O)=O)c(-c3ccc4nc(CN5CCN(C(C)=O)CC5)n5c6cccc(F)c6cc5c4n3)cc12 [Example 148]
IC50 (HCV replicon genotype 1a): 2.52 nM | IC50 (HCV replicon genotype 1b): 3.17 nM

CNC(=O)c1c(-c2ccc(F)cc2)oc2cc(N(C)S(C)(=O)=O)c(-c3ccc4nc(C)n5c6cccc(F)c6cc5c4n3)cc12 [Example 60, 5-(11-fluoro-6-methylpyrido[3′,2′:4,5]pyrimido[1,6-a]indol-2-yl)-2-(4-fluorophenyl)-N-methyl-6-(N-methylmethylsulfonamido)benzofuran-3-carboxamide]
IC50 (HCV replicon genotype 1a): 2.78 nM | IC50 (HCV replicon genotype 1b): 2.77 nM

CNC(=O)c1c(-c2ccc(F)cc2)oc2cc(N(C)S(C)(=O)=O)c(-c3ccc4nc(CN5CCC(C)(O)CC5)n5c6cccc(F)c6cc5c4n3)cc12 [Example 93]
IC50 (HCV replicon genotype 1a): 4.19 nM | IC50 (HCV replicon genotype 1b): 7.78 nM

CNC(=O)c1c(-c2ccc(F)cc2F)oc2cc(N(C)S(C)(=O)=O)c(-c3ccc4nc(CN5CCC(F)(F)CC5)n5c6cccc(F)c6cc5c4n3)cc12 [Example 47]
IC50 (HCV replicon genotype 1a): 9.67 nM | IC50 (HCV replicon genotype 1b): 11.2 nM

CNC(=O)c1c(-c2ccc(F)cc2F)oc2cc(N(C)S(C)(=O)=O)c(-c3ccc4nc(CN5CC(C)(OC)C5)n5c6cccc(F)c6cc5c4n3)cc12 [Example 138]
IC50 (HCV replicon genotype 1a): 4.33 nM | IC50 (HCV replicon genotype 1b): 4.59 nM

CNC(=O)c1c(-c2ccc(F)cc2)oc2cc(N(C)S(C)(=O)=O)c(-c3ccc4c(n3)-c3cc5c(F)cccc5n3CN4C)cc12 [Example 67, 5-(11-fluoro-5-methyl-5,6-dihydropyrido[3′,2′:4,5]pyrimido[1,6-a]indol-2-yl)-2-(4-fluorophenyl)-N-methyl-6-(N-methylmethylsulfonamido)benzofuran-3-carboxamide]
IC50 (HCV replicon genotype 1a): 1.56 nM | IC50 (HCV replicon genotype 1b): 2.72 nM
